For series [1], the system named is MRSA isolate ATCC BAA-1556. The series can be described thus: MIC, CLSI-guided broth susceptibility testing, MRSA 1556. Conditions: for MIC Values, MRSA 1556: MRSA isolate ATCC BAA-1556; for MIC: Staphylococcus aureus, read-out: MIC Values, MRSA 1556. Format: cell-based, Staphylococcus aureus. As to the method: (§1) Compounds of the invention were evaluated for their ability to inhibit bacterial growth in two MRS A strains—MRS A 1556 and MRS A 29213. Table 2 provides MIC concentrations for metabolites of the ester and amide compounds, RV80 (metabolite of RV65 ester) and RV82 (metabolite of RV62 amide). MIC values for vancomycin and telavancin are also provided.
(§2) MIC Testing: Glycopeptide compounds were dissolved in 100% DMSO. In vitro activities were determined using CLSI-guided broth susceptibility testing to measure drug minimum inhibitory concentrations (MICs) of the compounds against the quality control strain ATCC 29213 (MSSA) and the MRS A isolate ATCC BAA-1556.

Series [2] has as its system quality control strain ATCC 29213 (MSSA). The series can be described thus: MIC, CLSI-guided broth susceptibility testing, MSSA 29213. It counts as cell-based, Staphylococcus aureus. Conditions: for MIC Values, MSSA 29213: ATCC 29213 (MSSA); for MIC: Staphylococcus aureus, read-out: MIC Values, MSSA 29213. As to the method: as §1, §2
Series [3] can be described thus: Metabolism (hydrolysis) in rat plasma. It counts as in vitro ADME. Conditions: 37° C.; for degradant detected in plasma: 50 μg/mL. The protocol:
RV62 and RV65 were dissolved in 100% DMSO. Stock solutions were diluted using rat plasma to contain less than 1% organic solvent with a final drug concentration of 50 μg/mL. Samples were briefly vortexed and then incubated in a shaker set to 37° C. and 300 rpm. Aliquots were removed at specified time points and store at −80° C. until extraction and analysis. Samples were extracted using a solution of 10% TCA and analyzed using LCMS.

Series [4] can be described thus: Degradation (hydrolysis) in Tris buffer by HPLC. It counts as physicochemical. Conditions: 1 mM Tris buffer pH 6.99, 40° C., 72 h. As to the method: RV62 and RV65 degradation was determined according to the following procedures.
Compounds were dissolved and diluted with 1 mM Tris buffer (pH 6.99) to achieve a concentration of 54 μg/mL (stock solution). 0.5 mL of stock solution was further diluted with acetonitrile to a total volume of 10 mL. The stock solution was incubated at 40° C., with samples withdrawn at 3, 6, 24, and 72 h and tested by HPLC.
HPLC method: Samples were injected onto a 100×2.1 mm Waters Cortecs HILIC with a particle size of 1.6 μm. The mobile phase consisted of water (0.1% formic acid) and acetonitrile (0.1% formic acid). The analytic method utilized a gradient from 10% water (0.1% formic acid)/90% acetonitrile (0.1% formic acid) to 70% water (0.1% formic acid)/30% acetonitrile (0.1% formic acid). The HPLC instrument was equipped with a UV detector (280 nm). Compounds were identified by mass.

SMILES strings stand for the structures. In brackets after ≈: the same amount, converted by molar mass.

`CCCCCCCCCC(=O)OCCNC1(C)CC(OC2C(Oc3c4cc5cc3Oc3ccc(cc3Cl)C(O)C3NC(=O)C(NC(=O)C5NC(=O)C(CC(N)=O)NC(=O)C(NC(=O)C(CC(C)C)NC)C(O)c5ccc(c(Cl)c5)O4)c4ccc(O)c(c4)-c4c(O)cc(O)cc4C(C(=O)O)NC3=O)OC(CO)C(O)C2O)OC(C)C1O` (centres unmarked) [RV54]: in series [1], the “MIC Values, MRSA 1556” value was 0.167 µg/mL (≈ 0.101 µM). Moreover, the “MIC Values, MSSA 29213” value in series [2] was 0.146 µg/mL (≈ 0.0886 µM).
For `CCCCCCCCCC(=O)NCCNC1(C)CC(OC2C(Oc3c4cc5cc3Oc3ccc(cc3Cl)C(O)C3NC(=O)C(NC(=O)C5NC(=O)C(CC(N)=O)NC(=O)C(NC(=O)C(CC(C)C)NC)C(O)c5ccc(c(Cl)c5)O4)c4ccc(O)c(c4)-c4c(O)cc(O)cc4C(C(=O)O)NC3=O)OC(CO)C(O)C2O)OC(C)C1O` (centres unmarked) [RV56], in that order: 0.063 µg/mL (≈ 0.0383 µM) and 0.063 µg/mL (≈ 0.0383 µM).
For the compound `CCCCCCCCCCCC(=O)NCCNC1(C)CC(OC2C(Oc3c4cc5cc3Oc3ccc(cc3Cl)C(O)C3NC(=O)C(NC(=O)C5NC(=O)C(CC(N)=O)NC(=O)C(NC(=O)C(CC(C)C)NC)C(O)c5ccc(c(Cl)c5)O4)c4ccc(O)c(c4)-c4c(O)cc(O)cc4C(C(=O)O)NC3=O)OC(CO)C(O)C2O)OC(C)C1O` (centres unmarked) [RV62], in series [1], the “MIC Values, MRSA 1556” value was found to be 0.023 µg/mL (≈ 0.0137 µM). Further, the “fold more efficacious than RV65 (MIC)” value in series [1] (compared with RV65, the ester with the lowest measured MIC, Table 1, both strains) is given as “about 3 ×”. Besides, in series [2], the “MIC Values, MSSA 29213” value stood at 0.023 µg/mL (≈ 0.0137 µM). Also, the “degradant detected in plasma” value in series [3] (24 h incubation) is reported as 6%.
For `CCCCCCCCCCCC(=O)OCCNC1(C)CC(OC2C(Oc3c4cc5cc3Oc3ccc(cc3Cl)C(O)C3NC(=O)C(NC(=O)C5NC(=O)C(CC(N)=O)NC(=O)C(NC(=O)C(CC(C)C)NC)C(O)c5ccc(c(Cl)c5)O4)c4ccc(O)c(c4)-c4c(O)cc(O)cc4C(C(=O)O)NC3=O)OC(CO)C(O)C2O)OC(C)C1O` (centres unmarked) [RV65], the “MIC Values, MRSA 1556” value in series [1] came out at 0.094 µg/mL (≈ 0.0561 µM). Further, the “MIC Values, MSSA 29213” value in series [2] came out at 0.063 µg/mL (≈ 0.0376 µM). Further, the “peak area for the cleaved glycopeptide, of the total” value in series [4] is recorded as “about 42%”. Besides, the “degradant detected in plasma” value in series [3] (6 h incubation) was roughly 90%. Besides, the “metabolism in plasma compared to RV62” value in series [3] (over 24 h) was “metabolized faster”.
In the case of `CNC(CC(C)C)C(=O)NC1C(=O)NC(CC(N)=O)C(=O)NC2C(=O)NC3C(=O)NC(C(=O)NC(C(=O)O)c4cc(O)cc(O)c4-c4cc3ccc4O)C(O)c3ccc(c(Cl)c3)Oc3cc2cc(c3OC2OC(CO)C(O)C(O)C2OC2CC(C)(NCCO)C(O)C(C)O2)Oc2ccc(cc2Cl)C1O` (centres unmarked) [RV80], the “MIC Values, MRSA 1556” value in series [1] was determined as 1 µg/mL (≈ 0.67 µM). For the same compound, the “MIC Values, MSSA 29213” value in series [2] came to 1 µg/mL (≈ 0.67 µM).
For the compound `CN[C@H](CC(C)C)C(=O)N[C@H]1C(=O)N[C@@H](CC(N)=O)C(=O)N[C@H]2C(=O)N[C@H]3C(=O)N[C@H](C(=O)N[C@@H](C(=O)O)c4cc(O)cc(O)c4-c4cc3ccc4O)[C@H](O)c3ccc(c(Cl)c3)Oc3cc2cc(c3O[C@@H]2O[C@H](CO)[C@@H](O)[C@H](O)[C@H]2O[C@H]2C[C@](C)(NCCN)[C@H](O)[C@H](C)O2)Oc2ccc(cc2Cl)[C@H]1O` [RV82], the minimum inhibitory concentration (MIC) in series [1] and in series [2] was 3 µg/mL (≈ 2.01 µM) throughout.
On to `CCCCCCCCCCCCCCCC(=O)OCCNC1(C)CC(OC2C(Oc3c4cc5cc3Oc3ccc(cc3Cl)C(O)C3NC(=O)C(NC(=O)C5NC(=O)C(CC(N)=O)NC(=O)C(NC(=O)C(CC(C)C)NC)C(O)c5ccc(c(Cl)c5)O4)c4ccc(O)c(c4)-c4c(O)cc(O)cc4C(C(=O)O)NC3=O)OC(CO)C(O)C2O)OC(C)C1O` (centres unmarked) [RV89], for which the “MIC Values, MRSA 1556” value in series [1] was 1.000 µg/mL (≈ 0.577 µM). The “MIC Values, MSSA 29213” value in series [2] amounted to 0.500 µg/mL (≈ 0.289 µM).
The like results for `CCCCCCCC(=O)OCCNC1(C)CC(OC2C(Oc3c4cc5cc3Oc3ccc(cc3Cl)C(O)C3NC(=O)C(NC(=O)C5NC(=O)C(CC(N)=O)NC(=O)C(NC(=O)C(CC(C)C)NC)C(O)c5ccc(c(Cl)c5)O4)c4ccc(O)c(c4)-c4c(O)cc(O)cc4C(C(=O)O)NC3=O)OC(CO)C(O)C2O)OC(C)C1O` (centres unmarked) [RV90] were, in that order, 0.250 µg/mL (≈ 0.154 µM) and 0.250 µg/mL (≈ 0.154 µM).
The like results for `CCCCCCCCCCCCCCCC(=O)NCCNC1(C)CC(OC2C(Oc3c4cc5cc3Oc3ccc(cc3Cl)C(O)C3NC(=O)C(NC(=O)C5NC(=O)C(CC(N)=O)NC(=O)C(NC(=O)C(CC(C)C)NC)C(O)c5ccc(c(Cl)c5)O4)c4ccc(O)c(c4)-c4c(O)cc(O)cc4C(C(=O)O)NC3=O)OC(CO)C(O)C2O)OC(C)C1O` (centres unmarked) [RV91] were, in that order, 0.250 µg/mL (≈ 0.144 µM) and 0.188 µg/mL (≈ 0.109 µM).
For `CCCCCCCC(=O)NCCNC1(C)CC(OC2C(Oc3c4cc5cc3Oc3ccc(cc3Cl)C(O)C3NC(=O)C(NC(=O)C5NC(=O)C(CC(N)=O)NC(=O)C(NC(=O)C(CC(C)C)NC)C(O)c5ccc(c(Cl)c5)O4)c4ccc(O)c(c4)-c4c(O)cc(O)cc4C(C(=O)O)NC3=O)OC(CO)C(O)C2O)OC(C)C1O` (centres unmarked) [RV93], in that order: 0.125 µg/mL (≈ 0.0772 µM) and 0.125 µg/mL (≈ 0.0772 µM).
As for `CCCCCCCCCCCCNC(=O)CNC1(C)CC(OC2C(Oc3c4cc5cc3Oc3ccc(cc3Cl)C(O)C3NC(=O)C(NC(=O)C5NC(=O)C(CC(N)=O)NC(=O)C(NC(=O)C(CC(C)C)NC)C(O)c5ccc(c(Cl)c5)O4)c4ccc(O)c(c4)-c4c(O)cc(O)cc4C(C(=O)O)NC3=O)OC(CO)C(O)C2O)OC(C)C1O` (centres unmarked) [RV95], in series [1], the “MIC Values, MRSA 1556” value came out at 0.031 µg/mL (≈ 0.0185 µM). In series [2], the “MIC Values, MSSA 29213” value was found to be 0.031 µg/mL (≈ 0.0185 µM).
As for `CCCCCCCCCCNCCN[C@@]1(C)C[C@H](O[C@H]2[C@H](Oc3c4cc5cc3Oc3ccc(cc3Cl)[C@@H](O)[C@@H](NC(=O)[C@@H](CC(C)C)NC)C(=O)N[C@@H](CC(N)=O)C(=O)N[C@H]5C(=O)N[C@H]3C(=O)N[C@H](C(=O)N[C@H](C(=O)O)c5cc(O)c(CNCP(=O)(O)O)c(O)c5-c5cc3ccc5O)[C@H](O)c3ccc(c(Cl)c3)O4)O[C@H](CO)[C@@H](O)[C@@H]2O)O[C@@H](C)[C@H]1O` [Telavancin, telavancin, reference compound], the minimal inhibitory concentration (MIC) in series [1] and in series [2] was 0.063 µg/mL (≈ 0.0359 µM) throughout.

The record behind these values is patent US11071769B2, “Lipo-glycopeptide cleavable derivatives and uses thereof” (Insmed Incorporated, priority 2017, dated 2021).
